Measured values: paper PMC10780819, “Enhanced Cytotoxicity and Antimelanoma Activity of Novel Semisynthetic Derivatives of Betulinic Acid with Indole Conjugation” (Plants, 2023)
“Also recorded” adds a separate entry of the source.

How the values were obtained:
[1] = tested on: B164A5 cells; experiment: Scratch (wound healing) anti-migratory assay; assay type: cell-based, murine; conditions: 50 µM, 24 h
Description: To evaluate the invasion capability of B164A5 cells after stimulation with the tested compounds (1, 10, 25, and 50 µM), a scratch-based experiment was conducted. In summary, a quantity of 2 × 10^5 cells/well were evenly distributed onto 12-well culture plates until a complete and cohesive layer of cells was achieved. Subsequently, a sterile pipette tip was used to create a void in the center of each well. The cells and cellular debris that were detached subsequent to the process were carefully rinsed using phosphate buffer saline (PBS). Additionally, the cells were subjected to stimulation with the tested compounds. Photographs of the scratched region were captured at two time points: 0 h and 24 h. The images were obtained using an inverted microscope (Olympus IX73, Olympus, Tokyo, Japan) with a DP74 camera (Olympus, Tokyo, Japan) at a magnification of 10×. The cellSense Dimension program was used for the purpose of analyzing cell growth.
The scratch closure rate was calculated using the formula [78]:Scratch closure rate = [(At0 − At)/[…]] × 100, where At0 represents the initial scratch area at time 0 h, and At represents the scratch area after 24 h.

[2] = tested on: murine melanoma B164A5 cells; experiment: Hoechst 33342 nuclear staining; assay type: cell-based; conditions: 25, 50, 75 μM tested; exposure per Figure 7 legend
Description: The procedure was implemented in accordance with the manufacturer’s recommendations. […] A positive control was used to induce apoptosis, using a concentration of 5 µM staurosporine for a duration of 3 h at a temperature of 37 °C. Similarly, for necrosis induction, a concentration of 0.5% Triton X-100 was utilized, with an incubation period of 30 min at 37 °C.

[3] = tested on: human melanoma cell line A375; set-up: method as in PMID 36986941; conditions: cited from earlier work; for wound healing rate: 50 µM
[4] = in vitro; conditions: human
Description: (§1) The effect of testing substances (BI and BA1-BA4) on the survival of human keratinocytes cell line HaCat was also assessed.
(§2) The MTT assay was used to determine the effect of 2,3-indolo-betulinic acid derivatives and betulinic acid on the viability of HaCaT human keratinocyte cell line and B164A5 murine melanoma cells. […] Briefly, 1 × 10^4 cells per well were seeded onto 96-well culture plates and incubated until 70–80% confluence was achieved. Subsequently, the cells were subjected to stimulation for a duration of 72 h using five distinct concentrations (1, 10, 25, 50, and 75 µM) of the test samples. Following a 72 h incubation period, a 10 μL amount of a 5 mg/mL MTT solution obtained from the MTT kit (Sigma-Aldrich, St. Louis, MO, USA) was introduced into each well and subjected to an additional 3 h incubation. The formazan crystals that had been yielded were dissolved by the addition of 100 μL per well of the lysis solution that was included in the MTT kit. B164A5 cells and HaCaT cells were used as a control, and they were only treated with culture medium for 72 h. The spectrophotometric analysis of absorbance was performed at a wavelength of 570 nm using a microplate reader (BioRad, Hercules, CA, USA, xMark Microplate Spectrophotometer).

[5] = tested on: B164A5 murine melanoma cells; experiment: MTT cell viability assay on B164A5; conditions: for reduction of cellular viability: 1 µM, 72 h, MTT; for viability at 1 µM: read-out: cell viability, 1 µM, 72 h, MTT; for viability at 75 µM: read-out: cell viability (growth percentage), 75 µM, 72 h, MTT
Description: as §2

[6] = tested on: murine melanoma cells B164A5; set-up: cell viability: dose or concentration left out as unconfirmed; conditions: cited from earlier work
[7] = tested on: HaCaT cells; conditions: concentrations over 10 μM; cited from earlier work
[8] = tested on: human melanoma A375 cells; conditions: cited from earlier work; for cytotoxic effect (LDH): 25 µM
[9] = tested on: HaCaT human keratinocyte cell line; experiment: MTT cell viability assay on HaCaT; conditions: for reduction in cell viability: increasing dosages (25, 50, and 75 μM), 72 h
Description: as §1, §2

[10] = tested on: murine melanoma cells (B164A5); experiment: Neutral Red (NR) cytotoxicity assay; conditions: 75 µM, 72 h
Description: In addition to undertaking the MTT proliferation assessment, the NR technique was used to measure the cytotoxicity rate of the substances being studied. The underlying premise of this methodology depends upon the measurement of live cells using the NR chromophore, which effectively stains the lysosome of living cells. […] Consequently, live cells have the capability to secrete the NR dye when subjected to acidic conditions. Moreover, the intensity of the dye may be directly associated with the quantity of living cells, thereby enabling the assessment of drug-induced cytotoxicity.
In summary, the experimental procedure included subjecting the cells to five different doses (1, 10, 25, 50, and 75 µM) of test samples for a duration of 72 h. Subsequently, a volume of 10 μL of a 0.33% NR solution was introduced into each well, followed by an incubation period of at least 3 h. Following the completion of the incubation time, the medium was extracted, and the cells were promptly rinsed with a 50 μL solution of NR assay fixative. Subsequently, a solubilization step was carried out using a 100 μL solution of NR assay solubilization solution per well.

[11] = tested on: B164A5 murine melanoma cells; experiment: Lactate dehydrogenase (LDH) release assay; conditions: 75 µM, 72 h
Description: The LDH technique is used to evaluate the extracellular release of internal lactate dehydrogenase subsequent to the disruption of the cellular membrane.
The present investigation used the LDH test to assess the cytotoxicity and necrosis-related events that transpired after the exposure of B164A5 murine melanoma cells to the test samples for a duration of 72 h.
The experimental procedure was conducted in accordance with the instructions outlined in the pierce LDH cytotoxicity assay kit, which was supplied by the manufacturer (Thermo Fisher Scientific, Boston, MA, USA).

[12] = tested on: Lox IMVI melanoma cells; set-up: method as in doi:10.1134/S1068162018030081; conditions: 100 µM, 48 h; cited from earlier work
[13] = tested on: SK-MEL-2 cells; set-up: method as in doi:10.1134/S1068162018030081; conditions: 100 µM, 48 h; cited from earlier work
[14] = MTT cell viability assay on HaCaT; conditions: human, HaCaT keratinocyte cells
Description: as §1, §2

[15] = tested on: A375 human melanoma cells; set-up: method as in PMID 27553358; conditions: 72 h incubation; cited from earlier work

SMILES	wound healing rate (scratch closure rate) [1]	nuclear changes (apoptosis / necrosis) [2]	wound healing rate [3]	viability at 72 h, 75 µM [4]	reduction of cellular viability [5]	IC50 ([5]; Mus musculus, B16-4A5, 72 h)	viability at 1 µM ([5]; Mus musculus, B16-4A5, 72 h)	inhibitory activity relative to BA4 ([5]; ratio of IC50 values)	viability at 75 µM ([5]; Mus musculus, B16-4A5, 72 h)	cytotoxic effect (LDH) [8]	reduction in cell viability [9]	also measured
C=C(C)[C@@H]1CC[C@]2(C(=O)NCC(=O)NCC(=O)O)CC[C@]3(C)[C@H](CC[C@@H]4[C@@]5(C)Cc6c([nH]c7ccccc67)C(C)(C)[C@@H]5CC[C@]43C)[C@@H]12 [BA2, N-(2,3-indolo-betulinoyl)glycylglycine]	10.0%	specific signs of apoptosis (chromatin condensation) at both concentrations of 50 and 75 μM; also recorded: distinct signs of apoptosis, such as chromatin condensation, at both concentrations of 50 and 75 μM	30%	~70%	15%	9.15 ± 0.05 µM	15.9%	approximately 2.20 fold				viability at 50 µM ([5]; Mus musculus, B16-4A5, 72 h, read-out: cell viability, 50 µM, 72 h, MTT): 0.41%
C=C(C)[C@@H]1CC[C@]2(C(=O)NCC(=O)O)CC[C@]3(C)[C@H](CC[C@@H]4[C@@]5(C)Cc6c([nH]c7ccccc67)C(C)(C)[C@@H]5CC[C@]43C)[C@@H]12 [BA3, N-(2,3-indolo-betulinoyl)glycine]	21.3%	necrosis process being observed from concentration of 25 μM; also recorded: necrotic process being apparent at a dosage of 25 μM		~70%		8.11 ± 0.13 µM	8.1%	approximately 2.20 fold	-1.5%			
C=C(C)[C@@H]1CC[C@]2(C(=O)O)CC[C@]3(C)[C@H](CC[C@@H]4[C@@]5(C)CC[C@H](O)C(C)(C)[C@@H]5CC[C@]43C)[C@@H]12 [BI, Betulinic acid]	34.9%	necrosis only from a concentration of 50 μM; also recorded: necrosis was evident in cells exposed to BA4 and BI only at a concentration of 50 μM			32%	21.14 ± 0.08 µM	31.3%		9.6%	21.2%	around 21%	scratch closure rate ([3]; 25 µM): 17.5%; reduction in cell viability ([6]; 25 µM, 48 h of exposure): 40%; cell viability ([6]; 72 h of exposure): 50%; decrease in cell viability [7]: 20%; cell viability diminished by ([9]; concentrations exceeding 10 µM): approximately 20%; reduction in cell viability ([5]; 25 µM, 72 h exposure): 71%; cytotoxicity rate (NR assay) [10]: 63.0%; LDH release (cytotoxic rate) [11]: 52.7%
C=C(C)C1CCC2(C(=O)O)CCC3(C)C(CCC4C5(C)Cc6c([nH]c7ccccc67)C(C)(C)C5CCC43C)C12 (stereo not shown) [BA4, 2,3-indolo-betulinic acid]		necrosis only from a concentration of 50 μM; also recorded: necrosis was evident in cells exposed to BA4 and BI only at a concentration of 50 μM				17.62 ± 0.11 µM			15%	43.36%	around 21%	viability percentage [12]: 44%; viability rate [13]: 57%; cytotoxic rate (LDH) ([8]; 75 µM): 32.8%; viability at 72 h, 75 µM [14]: 80.3%; activity relative to parent triterpenoid BI ([5]; ratio of IC50 values): 1.2 times
C=C(C)[C@@H]1CC[C@]2(C(=O)NCC(=O)NCC(=O)NCC(=O)O)CC[C@]3(C)[C@H](CC[C@@H]4[C@@]5(C)Cc6c([nH]c7ccccc67)C(C)(C)[C@@H]5CC[C@]43C)[C@@H]12 [BA1, N-(2,3-indolo-betulinoyl)diglycylglycine]		apoptosis features only at a concentration of 75 μM; also recorded: apoptotic characteristics only at a concentration of 75 μM	35%	~70%	27%	10.34 ± 0.06 µM			5.7%			IC50 [15]: 5.7 µM
